Assay results from patent publication US12503510B2, “Small shedding blocking agents” (BIOND BIOLOGICS LTD., priority 2019, dated 2025).
Like-named read-outs stand apart in the source and are kept apart here.

Columns and labels:
[1] = tested on: human PBMCs; assay: SEB or CMV stimulated PBMCs with anti-PD1 and soluble CD28; format: cell-based
[2] = tested on: autologous monocytes and CD3 T cells; assay: Autologous monocytes CD3 MLR with CMV peptide; format: cell-based, human
Method: The mixed cells were stimulated for 5 days with CMV peptide (0.5 μg/mL) with and without increasing concentrations of recombinant human sCD28.
The MLR was run as before only with and without sCD28 and with and without an anti-PD1 antibody (MK3475, 5 μg/mL) (FIG. 8B).

[3] = tested on: isolated PBMCs; assay: CMV stimulated PBMC with constant sCD28 and CD80-Fc titration; format: cell-based, human; details: CMV peptide 3 days
[4] = tested on: human PBMCs; assay: CMV stimulation of PBMCs with ectopic recombinant human CD28 or CTLA-4, cytokine ELISA/multiplex; format: cell-based; details: CMV 0.5 μg/mL
[5] = tested on: isolated CD3 human T cells; assay: T cells stimulation with OKT3 and CD80-Fc, IFN gamma; format: cell-based; details: OKT3 2 μg/mL
Method: T cells stimulation with OKT3—0.1×10^6 isolated CD3 T cells (from healthy donors) were stimulated with indicated amount of anti-CD3 clone OKT3 for 48-72 hr at 37° C. When stated recombinant human CD80-Fc (2 μg/mL, R&D system) was added in soluble form. Antibodies or VHHs to CD28 or controls were added at the indicated concentration in soluble form.
CD80 is one of the two main ligands for mCD28 along with CD86. The extracellular domain of CD80 fused to an Fc moiety has been used as an immune stimulatory molecule and is under investigation as a cancer therapy. In order to examine the effect of sCD28 on CD80-Fc efficacy, isolated CD3 human T cells were stimulated with plate bound anti-CD3 antibody (OKT3, 2 μg/mL) in the presence of 2 μg/mL soluble recombinant human CD80-Fc.

[6] = tested on: H22 hepatocellular carcinoma cells; assay: H22 syngeneic mouse model; format: in vivo; details: Balb/c mice, H22 allograft, with anti-PD-1
[7] = tested on: PBMC of cancer patients; assay: SEB stimulated PBMC of cancer patients with sCD28 and MK-3475; format: cell-based, human; details: SEB 5 ng/mL, 3 days
[8] = tested on: isolated human monocytes; assay: Stimulation of monocytes with recombinant human CD28 (IDO, PD-L1, PD-L2); format: cell-based; details: IFNγ 1000 U/mL, recombinant human CD28 10 μg/mL
Method: Stimulation of monocytes with recombinant human CD28—1.5×10^6 monocytes were plated at 24 well plate in RPMI medium with […] IFN gamma (R&D system, Cat. No. 285-IF) in the presence of recombinant human CD28 at the indicated concentrations for 48 hrs. The generated cell populations were tested for the indicated phenotypes by FACS analysis of relevant markers (IDO, PD-L1 and PD-L2) and by analysis of secretion of characteristic cytokines (IL-6).
The enzyme indoleamine 2,3-dioxygenase (IDO) has been implicated in immune modulation through its ability to catabolize the essential amino acid Tryptophan. It is expressed by different immune cells and also by many cancer cells. Tryptophan shortage inhibits T lymphocytes maturation and proliferation, while Kynurenine, the end product of tryptophan catabolism, is also known as immunosuppressive metabolite that promotes immune tolerance in various physiological and pathophysiological conditions. To test the effect of sCD28 on IDO, isolated human monocytes were stimulated for 48 hr with IFNγ (1000 U/mL) in the presence of control human IgG or with recombinant human CD28 (10 μg/mL). After incubation, the monocytes were stained intracellularly for human IDO (FIG. 7E). To facilitate intracellular staining the cells were fixed and permeabilized with BD Cytofix/Cytoperm Buffer Kit.
In order to elucidate the mechanism by which sCD28 inhibits the pro-activation effect of anti-PD-1 therapy, the expression of PD-1 ligands on immune cells in the presence of sCD28 was examined. Isolated human monocytes were stimulated for 48 hours with IFNγ (1000 U/mL) in the presence of control human IgG (10 μg/mL) or with recombinant human CD28 (10 μg/mL). After incubation the monocytes were stained for PD-L1 (FIG. 8C, left) and PD-L2 (FIG. 8C, right).

[9] = tested on: human PBMCs; assay: Lymphocyte clustering of SEB stimulated PBMCs (IncuCyte); format: cell-based; details: SEB 1 ng/mL
Method: Next, human PBMCs were stimulated with SEB (1 ng/mL) without or in the presence of recombinant human CD28. Human IgG was used as control. Lymphocyte clustering, a hallmark of immune activation was monitored using the IncuCyte® S3 Live-Cell, with pictures taken every 12 hours. […] It is well established that during in-vitro immune response antigen presenting cells (APC) cluster with one another and with other cell types, and clustering is essential for the antigen specific activation of resting lymphocytes.

[10] = tested on: SCC-25 cells; assay: Co-culture of SCC-25 cancer cell line with monocytes in trans-well assay; format: cell-based, human
Method: Co-culture of SCC-25 cancer cell line with monocytes in trans-well based assay—4×10^4 SCC-25 cells were plated on the bottom of 24 well plate with 1×10^5 monocytes placed on cell culture insert (Millipore, Cat. No. MCHT241148) with or without indicated treatments for 4 days in starvation media without serum.
Next, cells of the head and neck cancer cell line SCC-25 were incubated either alone or with monocytes in a trans-well assay. SCC-25 cells grown alone were administered IL-6 as a positive control, and indeed cell proliferation, as measured by MTT (FIG. 9C, upper) and as measured by % confluency (FIG. 9C, lower), was increased.

[11] = tested on: human PBMCs
[12] = tested on: human PBMCs; assay: Soluble CD28 generation in SEB or CMV stimulated PBMCs, human CD28 ELISA; format: cell-based; details: SEB 1 ng/mL; inhibitor 0.01-1 μM
Method: Protease Inhibitors—Protease inhibitors were added at the indicated concentrations at the start of each experiment. In week long assays another portion of the inhibitors was added after 3 days at the final concentration. Protease inhibitors used are TAPI-1 (Cayman, Cat. No. 18505), GM6001 (Santa Cruz, Cat. No. SC-203979), TMI-1 (Sigma, Cat. No. PZ0336) and GI254023X (Sigma, Cat. No. SML0789). Where mentioned the protease cocktail was composed with a mixture of TAPI-1 and GM6001 at equimolar ratio.

[13] = CMV peptide 0.5 μg/mL, 5 days, increasing sCD28

Pembrolizumab [MK-3475, reference compound]
proinflammatory cytokine secretion (IFN gamma and IL-2) ([1]; MK3475 5 μg/mL, 3 days): increased proinflammatory cytokine secretion
IFN gamma secretion ([2]; MK3475 5 μg/mL): increased IFN gamma secretion
TGF beta secretion ([2]; MK3475 5 μg/mL): decreased TGF beta secretion

sCD28: recombinant human CD28 lacking the transmembrane and cytoplasmic domains
CD80-Fc needed for immune response in presence of sCD28 [3]: an increased amount of CD80-Fc was required
IFN gamma secretion [4]: dose-dependent inhibition of IFN gamma secretion
IL-6 secretion [4]: increase IL-6 cytokine secretion
interleukin-10 secretion [4]: elevation
effect on CD80-Fc secondary activation ([5]; constant CD80-Fc, titration of sCD28): counteracted the secondary activation effect of the CD80-Fc
effect on anti-PD-1 therapy [6]: nearly completely abrogated in two of the mice
effect on MK-3475 ([7]; combination): rendered the effect of MK-3475 nonexistent
concentration of human IFN gamma in the supernatant ([7]; with or without MK-3475): greatly reduced
effect on MK-3475 immune activation ([1]; sCD28 2 and 10 μg/mL combined with MK3475 5 μg/mL): abrogated completely this immune activation effect
PD-L1 expression on monocytes ([8]; 48 hours): upregulated
PD-L2 expression on monocytes ([8]; 48 hours): upregulated
IDO expression in monocytes ([8]; 48 hr): strongly enhanced IDO expression
IFN gamma secretion [2, 13]: inhibit IFN gamma secretion
IL-1B secretion [2, 13]: increasing the secretion
IL-10 secretion [2, 13]: increasing the secretion
TGF beta secretion [2, 13]: increasing the secretion
effect of MK-3475 in the presence of sCD28 ([2]; MK3475 5 μg/mL with sCD28): significantly reduced
lymphocyte cluster formation [9]: diminish the amount and size of cluster formation
cell proliferation (MTT and % confluency) ([10]; coculture with monocytes): by far the greatest increase

CC#CCOc1ccc(S(=O)(=O)N2CCSC(C)(C)[C@@H]2C(=O)NO)cc1 [TMI-1]
viability of the immune cells (MTT) [11]: no significant difference

IL-6: cytokine given to SCC-25 cells as a positive control [reference compound]
cell proliferation (MTT and % confluency) ([10]; SCC-25 cells grown alone, positive control): increased

CNC(=O)[C@@H](NC(=O)[C@H](CCCc1ccccc1)[C@H](C)N(O)C=O)C(C)(C)C [GI254023X]
sCD28 release from activated immune cells [12]: almost complete inhibition of sCD28 release
viability of the immune cells (MTT) ([11]; SEB 1 ng/mL, with vs without ADAM inhibitor): no significant difference

B1: CD80-Fc: extracellular domain of CD80 fused to an Fc moiety (protein)
chain: VIHVTKEVKEVATLSCGHNVSVEELAQTRIYWQKEKKMVLTMMSGDMNIWPEYKNRTIFDITNNLSIVILALRPSDEGTYECVVLKYEKDAFKREHLAEVTLSVKADFPTPSISDFEIPTSNIRRIICSTSGGFPEPHLSWLENGEELNAINTTVSQDPETELYAVSSKLDFNMTTNHSFMCLIKYGHLRVNQTFNWNTTKQEHFPDN
modifications: left off: a dimerising Fc or GST
notes: extracellular domain of CD80 fused to an Fc moiety
IFN gamma secretion ([5]; CD80-Fc 2 μg/mL): increased IFN gamma secretion
